In article PMC5906710, “Simvastatin Enhances Activity and Trafficking of α7 Nicotinic Acetylcholine Receptor in Hippocampal Neurons Through PKC and CaMKII Signaling Pathways” (Frontiers in Pharmacology, 2018):

Target: T1, α7 nicotinic acetylcholine receptor (α7nAChR) (Mus musculus, UniProt P49582)
T1 construct: gene Chrna7; native receptor in hippocampal CA1 pyramidal cells (slices)
Experiment: whole-cell patch-clamp of ACh-evoked currents in mouse hippocampal slices, dose-response

T1 sequence (P49582 23-502): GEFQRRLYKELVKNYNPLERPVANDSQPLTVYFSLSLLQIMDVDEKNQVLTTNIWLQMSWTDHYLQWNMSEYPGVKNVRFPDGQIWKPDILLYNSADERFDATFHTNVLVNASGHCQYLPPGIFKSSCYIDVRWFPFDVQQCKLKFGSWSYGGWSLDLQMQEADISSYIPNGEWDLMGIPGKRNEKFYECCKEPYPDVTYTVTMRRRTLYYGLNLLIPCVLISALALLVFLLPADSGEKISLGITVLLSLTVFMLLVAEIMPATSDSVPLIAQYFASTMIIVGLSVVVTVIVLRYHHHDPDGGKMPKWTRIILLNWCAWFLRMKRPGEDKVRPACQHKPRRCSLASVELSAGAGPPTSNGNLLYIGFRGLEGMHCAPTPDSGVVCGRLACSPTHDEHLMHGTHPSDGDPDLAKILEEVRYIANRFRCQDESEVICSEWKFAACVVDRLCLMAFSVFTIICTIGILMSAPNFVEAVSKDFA

CC(=O)OCC[N+](C)(C)C [ACh, acetylcholine]
EC50: 117.1 ± 0.94 µM
